In BigSolDB 2.1:

C=CC(=O)NC(C)(C)CS(=O)(=O)O
Conditions	solubility (mole fraction)
in 1,4-dioxane, 288.15 K	0.000105
in 1,4-dioxane, 293.15 K	0.000168
in 1,4-dioxane, 298.15 K	0.000274
in 1,4-dioxane, 303.15 K	0.000425
in 1,4-dioxane, 308.15 K	0.000657
in 1,4-dioxane, 313.15 K	0.000978
in 1,4-dioxane, 318.15 K	0.00139
in 1,4-dioxane, 323.15 K	0.00195
in 1,4-dioxane, 328.15 K	0.00268
in acetone, 283.15 K	0.00625
in acetone, 288.15 K	0.00695
in acetone, 293.15 K	0.00795
in acetone, 298.15 K	0.00921
in acetone, 303.15 K	0.0107
in acetone, 308.15 K	0.0126
in acetone, 313.15 K	0.0148
in acetone, 318.15 K	0.0173
in acetone, 323.15 K	0.0205
in acetone, 328.15 K	0.0244
in acetonitrile, 283.15 K	3.11e-05
in acetonitrile, 288.15 K	5.19e-05
in acetonitrile, 293.15 K	9.14e-05
in acetonitrile, 298.15 K	0.000154
in acetonitrile, 303.15 K	0.000265
in acetonitrile, 308.15 K	0.000436
in acetonitrile, 313.15 K	0.000696
in acetonitrile, 318.15 K	0.00107
in acetonitrile, 323.15 K	0.0016
in acetonitrile, 328.15 K	0.00237
in cyclohexane, 283.15 K	2.64e-05
in cyclohexane, 288.15 K	4.73e-05
in cyclohexane, 293.15 K	7.77e-05
in cyclohexane, 298.15 K	0.000139
in cyclohexane, 303.15 K	0.000229
in cyclohexane, 308.15 K	0.000359
in cyclohexane, 313.15 K	0.000567
in cyclohexane, 318.15 K	0.000867
in cyclohexane, 323.15 K	0.00125
in cyclohexane, 328.15 K	0.00179
in ethanol, 283.15 K	0.00721
in ethanol, 288.15 K	0.00794
in ethanol, 293.15 K	0.00893
in ethanol, 298.15 K	0.0102
in ethanol, 303.15 K	0.0118
in ethanol, 308.15 K	0.0138
in ethanol, 313.15 K	0.0161
in ethanol, 318.15 K	0.0189
in ethanol, 323.15 K	0.0225
in ethanol, 328.15 K	0.0264
in ethyl acetate, 283.15 K	0.00106
in ethyl acetate, 288.15 K	0.00142
in ethyl acetate, 293.15 K	0.00198
in ethyl acetate, 298.15 K	0.00262
in ethyl acetate, 303.15 K	0.00338
in ethyl acetate, 308.15 K	0.00431
in ethyl acetate, 313.15 K	0.00543
in ethyl acetate, 318.15 K	0.00672
in ethyl acetate, 323.15 K	0.00829
in ethyl acetate, 328.15 K	0.0103
in ethylene glycol, 283.15 K	0.000463
in ethylene glycol, 288.15 K	0.000687
in ethylene glycol, 293.15 K	0.00105
in ethylene glycol, 298.15 K	0.00162
in ethylene glycol, 303.15 K	0.00237
in ethylene glycol, 308.15 K	0.00329
in ethylene glycol, 313.15 K	0.00444
in ethylene glycol, 318.15 K	0.00583
in ethylene glycol, 323.15 K	0.00757
in ethylene glycol, 328.15 K	0.00972
in isobutanol, 283.15 K	0.00229
in isobutanol, 288.15 K	0.00267
in isobutanol, 293.15 K	0.00322
in isobutanol, 298.15 K	0.00394
in isobutanol, 303.15 K	0.00485
in isobutanol, 308.15 K	0.00596
in isobutanol, 313.15 K	0.00728
in isobutanol, 318.15 K	0.00885
in isobutanol, 323.15 K	0.0107
in isobutanol, 328.15 K	0.0131
in isopropanol, 283.15 K	0.000208
in isopropanol, 288.15 K	0.000333
in isopropanol, 293.15 K	0.00056
in isopropanol, 298.15 K	0.000882
in isopropanol, 303.15 K	0.00129
in isopropanol, 308.15 K	0.00186
in isopropanol, 313.15 K	0.00266
in isopropanol, 318.15 K	0.00373
in isopropanol, 323.15 K	0.00508
in isopropanol, 328.15 K	0.00671
in methanol, 283.15 K	0.00916
in methanol, 288.15 K	0.0103
in methanol, 293.15 K	0.0117
in methanol, 298.15 K	0.0138
in methanol, 303.15 K	0.0163
in methanol, 308.15 K	0.0193
in methanol, 313.15 K	0.0227
in methanol, 318.15 K	0.0268
in methanol, 323.15 K	0.0322
in methanol, 328.15 K	0.0383
in n-butanol, 283.15 K	0.00359
in n-butanol, 288.15 K	0.00403
in n-butanol, 293.15 K	0.00468
in n-butanol, 298.15 K	0.0055
in n-butanol, 303.15 K	0.00649
in n-butanol, 308.15 K	0.00773
in n-butanol, 313.15 K	0.00922
in n-butanol, 318.15 K	0.011
in n-butanol, 323.15 K	0.0133
in n-butanol, 328.15 K	0.0159
in n-heptanol, 283.15 K	0.00327
in n-heptanol, 288.15 K	0.00369
in n-heptanol, 293.15 K	0.00426
in n-heptanol, 298.15 K	0.00496
in n-heptanol, 303.15 K	0.00582
in n-heptanol, 308.15 K	0.0069
in n-heptanol, 313.15 K	0.00824
in n-heptanol, 318.15 K	0.00987
in n-heptanol, 323.15 K	0.0118
in n-heptanol, 328.15 K	0.0145
in n-propanol, 283.15 K	0.00399
in n-propanol, 288.15 K	0.00463
in n-propanol, 293.15 K	0.00542
in n-propanol, 298.15 K	0.00646
in n-propanol, 303.15 K	0.00764
in n-propanol, 308.15 K	0.0091
in n-propanol, 313.15 K	0.0108
in n-propanol, 318.15 K	0.0129
in n-propanol, 325.15 K	0.0158
in n-propanol, 328.15 K	0.0188
